Experimental data published in US7598032B2, “Thermostable DNA polymerases incorporating nucleoside triphosphates labeled with fluorescent dyes” (Roche Molecular Systems, priority 1997, dated 2009).

Target: T1, Thermus aquaticus (Taq) DNA polymerase variant G46D F667Y E681K (Thermus aquaticus, UniProt P19821, E681K/F667Y/G46D)
T1 construct: Expression vector pRDA3-2 contains the full-length Taq DNA polymerase gene; made in house; host or cells: E. coli DG116 (plasmid pLK113)
Assay: Limiting template primer extension competition assay (ddNTP incorporation), G46D F667Y E681K Taq
Format: biochemical
Procedure: The ability of the enzymes of this invention to efficiently incorporate nucleotides labeled with fluorescein family dyes is measured by ddNTP incorporation assays. One such assay is a primer extension competition assay conducted under conditions of limiting template. In this assay, a primer DG48 (5′-[…]), (SEQ ID NO: 11), bound to M13 mp18 template (Innis et al., 1988, Proc. Natl. Acad. Sci. USA 85:9436) is extended in the presence of [α-^33P]dCTP and excess enzyme with various levels of a fluorescently labeled ddNTP, Zowie-ddCTP. Because the incorporation of a ddCTP residue terminates the extension reaction, the more readily a DNA polymerase incorporates a ddCTP into an extended primer, the less [α-^33P]dCTP can be incorporated. Thus, as the efficiency of fluorescently labeled ddCTP incorporation increases, the extent of inhibition of DNA synthesis is increased. The reactions were also performed with various levels of an unlabeled ddCTP. […]
The relative abilities of G46D F667Y Taq, G46D F667Y E681K Taq and F730Y Tma30 DNA polymerases to incorporate a fluorescein dye family-labeled ddCTP were compared by use of a limiting template, primer extension competition assay. […] In this competition assay, because the incorporation of a ddCTP terminates the extension reaction, the more readily the polymerase incorporates a ddCTP into an extended primer, the less [α-^33P]dCTP can be incorporated. […]

T1 sequence (P19821 whole entry G46D/F667Y/E681K): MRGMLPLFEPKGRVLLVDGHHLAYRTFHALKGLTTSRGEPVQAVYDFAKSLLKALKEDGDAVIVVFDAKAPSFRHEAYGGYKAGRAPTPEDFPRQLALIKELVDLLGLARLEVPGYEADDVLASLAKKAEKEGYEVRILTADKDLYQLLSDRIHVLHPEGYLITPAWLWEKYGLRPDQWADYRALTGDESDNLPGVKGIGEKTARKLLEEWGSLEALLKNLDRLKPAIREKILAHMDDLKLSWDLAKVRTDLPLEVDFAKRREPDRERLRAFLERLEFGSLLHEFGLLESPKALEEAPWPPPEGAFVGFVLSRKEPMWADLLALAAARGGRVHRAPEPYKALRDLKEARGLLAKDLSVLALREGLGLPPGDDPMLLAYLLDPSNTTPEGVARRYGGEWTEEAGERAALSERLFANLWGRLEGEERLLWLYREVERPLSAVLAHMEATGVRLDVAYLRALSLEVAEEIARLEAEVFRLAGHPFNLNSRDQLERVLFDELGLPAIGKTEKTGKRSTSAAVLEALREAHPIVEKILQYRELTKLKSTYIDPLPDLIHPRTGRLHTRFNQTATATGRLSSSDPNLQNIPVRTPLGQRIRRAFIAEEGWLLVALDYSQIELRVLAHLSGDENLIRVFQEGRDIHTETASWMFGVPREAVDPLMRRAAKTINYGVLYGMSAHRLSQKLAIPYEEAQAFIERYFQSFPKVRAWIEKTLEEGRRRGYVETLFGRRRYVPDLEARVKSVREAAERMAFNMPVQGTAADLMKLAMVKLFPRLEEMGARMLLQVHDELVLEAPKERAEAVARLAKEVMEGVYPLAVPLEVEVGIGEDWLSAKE

## Nc1ccn([C@H]2CC[C@@H](COP(=O)(O)OP(=O)(O)OP(=O)(O)O)O2)c(=O)n1 [ddCTP]
  IC50: 116 nM
